The subject of one experiment is HPIV-3. The note with it: HPIV-3-infected Hep2 cells and uninfected CV-1W cells; cited from earlier work.
Experiment [1] has as its system NL4-3 with DIV (G36D) mutation in gp41. The note with it: NL4-3, in vitro; cited from earlier work.
Experiment [2] addresses HIV-1 transmembrane glycoprotein gp41 (strain HIV-1 IIIB) (HIV-1 strain IIIB) (UniProt P04578). In words: cell-based or functional assay.
The next experiment has as its system RSV. The note with it: RSV-infected and uninfected Hep-2 cells; cited from earlier work.
The next experiment has as its system HIV-1 IIIB. In words: Anti-HIV efficacy evaluation in fresh human PBMCs (albumin conjugates vs original peptides). The format is cell-based. The note with it: NA = IC50 not achieved. How it is done: HIV-1 IIIB was obtained through the AIDS Research and Reference Reagent Program, Division of AIDS, NIAID, NIH courtesy of Dr. Robert C. […] Fresh human peripheral blood mononuclear cells (PBMCs), seronegative for HIV and HBV, were isolated from blood of screened donors (Biological Specialty Corporation; Colmar, Pa.) using Lymphocyte Separation Medium (LSM; Cellgro® by Mediatech, Inc.; density 1.078+/−0.002 g/ml) following the manufacturer's instructions. Cells were stimulated by incubation in 4 μg/mL Phytohemagglutinin (PHA; Sigma) for 48-72 hours. Mitogenic stimulation was maintained by the addition of 20 U/mL recombinant human IL-2 (R&D Systems, Inc) to the culture medium. PHA-stimulated PBMCs from at least two donors were pooled, diluted in fresh medium and added to 96-well plates at 5×10^4 cells/well. Cells were infected (final MOI≅0.1) in the presence of 9 different concentrations of test compounds (triplicate wells/concentration) and incubated for 7 days. […] Following removal of supernatant samples, compound cytotoxicity was measured by the addition of 3-(4,5-dimethylthiazol-2-yl)-5-(3-carboxymethoxyphenyl)-2-(4-sulfophenyl)-2H-tetrazolium (MTS; CellTiter 96 Reagent, Promega) following the manufacturer's instructions. […] AZT (nucleoside reverse transcriptase inhibitor) was used as the assay control compound.

Where [3] appears, read: HIV-1 IIIB in PHA-stimulated PBMCs, 7 days.

This is an account of results in patent publication US20090088377A1, “CYSTEIC ACID DERIVATIVES OF ANTI-VIRAL PEPTIDES” (priority 2007, published 2009).

As for “NSVALDPIDISIELNKAKSDLEESKEWIRRSNQKL [SEQ ID NO:27]”, the “Concentration inhibiting fusion and syncytia formation” value in the experiment on HPIV-3 is on record as “less than 1 μg/ml”.

enfuvirtide: the “Resistance conferred by the DIV (G36D) mutation in gp41” value in experiment [1] is on record as 8 fold.

Consider C34 peptide, for which the IC50 (50% inhibition of virus replication), HIV-1 IIIB in PBMC in experiment [2] came out at 0.6 nM.

Regarding “IALLSTNKAVVSLSNGVSVLTSKVLDLKNYIDK [SEQ ID NO:24]”, the “Concentration inhibiting fusion and syncytia formation” value with RSV is recorded as “less than 50 μg/ml”.

With `Cc1cn([C@H]2C[C@H](N=[N+]=[N-])[C@@H](CO)O2)c(=O)[nH]c1=O` [AZT], in the experiment with HIV-1 IIIB (setting [3]), the IC50 stood at 2.9 nM and the 90% effect level (IC90) was put at 26.9 nM. Further, in the experiment on HIV-1 IIIB (from TC50 (MTS) and IC50 in PBMCs), the “Selectivity Index” value is greater than 346.

As for “T-20 (DP-178, enfuvirtide, Fuzeon) (peptide)”, in experiment [2], the IC50 (50% inhibition of virus replication), HIV-1 IIIB in PBMC turned out to be 2.2 nM and the IC90 (90% inhibition of virus replication), HIV-1 IIIB in PBMC was 9.5 nM.
